From ChEMBL document CHEMBL3421607, “Design, synthesis and antibacterial activity of cinnamaldehyde derivatives as inhibitors of the bacterial cell division protein FtsZ” (Eur J Med Chem, 2015) come the findings set out here.

Assay type in all cases: functional
Assay [1] relates to Bacillus subtilis. Description: microbe, parasite or virus in culture. The conditions noted are these: ATCC 9372, 24 h.
Description: Antibacterial activity against penicillin-susceptible Bacillus subtilis ATCC 9372 after 24 hrs by broth microdilution method
Assay [2] concerns Escherichia coli. In words: microbe, parasite or virus in culture. The conditions noted are these: ATCC 25922, 24 h.
Description: Antibacterial activity against penicillin-susceptible Escherichia coli ATCC 25922 after 24 hrs by broth microdilution method
In assay [3] the test system is Pseudomonas aeruginosa. In words: microbe, parasite or virus in culture. The conditions noted are these: ATCC 27853, 24 h.
Description: Antibacterial activity against penicillin-susceptible Pseudomonas aeruginosa ATCC 27853 after 24 hrs by broth microdilution method
Assay [4] deals with Staphylococcus aureus. In words: microbe, parasite or virus in culture. The following applies: ATCC 25923, 24 h.
Description: Antibacterial activity against penicillin-susceptible Staphylococcus aureus ATCC 25923 after 24 hrs by broth microdilution method
For assay [5], the system named is Staphylococcus aureus. In words: microbe, parasite or virus in culture. The following applies: ATCC 29213, 24 h.
Description: Antibacterial activity against methicillin-resistant Staphylococcus aureus ATCC 29213 after 24 hrs by broth microdilution method
The test system of assay [6] is Staphylococcus aureus. Description: Antibacterial activity against penicillin-resistant Staphylococcus aureus clinical isolates after 24 hrs by broth microdilution method. A general note: In broth dilution the organism is exposed to a series of concentrations in liquid medium.
The subject of assay [7] is Bacillus subtilis. In words: microbe, parasite or virus in culture. The following applies: ATCC 9372, 5 h.
Description: Inhibition of cell division in penicillin-susceptible Bacillus subtilis ATCC 9372 assessed as filamentation after 5 hrs by phase contrast microscopy
The test system of assay [8] is Escherichia coli. In words: microbe, parasite or virus in culture. The conditions noted are these: ATCC 25922, 5 h.
Description: Inhibition of cell division in penicillin-susceptible Escherichia coli ATCC 25922 assessed as filamentation after 5 hrs by phase contrast microscopy
Assay [9] deals with Pseudomonas aeruginosa. Description: microbe, parasite or virus in culture. The conditions noted are these: ATCC 27853, 5 h.
Description: Inhibition of cell division in penicillin-susceptible Pseudomonas aeruginosa ATCC 27853 assessed as filamentation after 5 hrs by phase contrast microscopy
Assay [10] concerns Staphylococcus aureus. In words: microbe, parasite or virus in culture. The following applies: ATCC 25923, 5 h.
Description: Inhibition of cell division in penicillin-susceptible Staphylococcus aureus ATCC 25923 assessed as ballooning after 5 hrs by phase contrast microscopy
Assay [11] has as its system Streptococcus pyogenes. Description: Antibacterial activity against penicillin-susceptible Streptococcus pyogenes clinical isolates after 24 hrs by broth microdilution method.
Assay [12] deals with Staphylococcus epidermidis. Description: Antibacterial activity against penicillin-resistant Staphylococcus epidermidis clinical isolates after 24 hrs by broth microdilution method.

Values after ≈ are worked out from the molar mass of the structure shown.

Consider `CC(C)NC(=O)/C=C/c1ccc([N+](=O)[O-])cc1`, for which the MIC in [1], in [2], in assay [3], in assay [4], in [5] and in assay [6] was over 128 µg/mL throughout. In addition, the MIC in assay [7], in assay [8], in assay [9] and in [10] was over 128 µg/mL in each case.
Consider `COc1cc(/C=C/C(=O)CC(=O)/C=C/c2ccc(O)c(OC)c2)ccc1O` [CURCUMIN], for which the MIC was 32 µg/mL (≈ 86.9 µM) in assay [1]; over 128 µg/mL in [2]; over 128 µg/mL in [3]; over 128 µg/mL in assay [4]; over 128 µg/mL in assay [5]; over 128 µg/mL in assay [6]. The MIC was over 128 µg/mL in assay [11], 16 µg/mL (≈ 43.4 µM) in [7], over 128 µg/mL in [8] and over 128 µg/mL in assay [10].
Consider `CCN(CC)C(=O)/C=C/c1cc(OC)c(OC)c(OC)c1`, for which the MIC in [1] was 128 µg/mL (≈ 436 µM); in assay [2] it was 128 µg/mL (≈ 436 µM); in assay [3] it was 128 µg/mL (≈ 436 µM); in assay [4], 64 µg/mL (≈ 218 µM); in [5] it was over 128 µg/mL; in [6], 64 µg/mL (≈ 218 µM). Also, the MIC in [12] is over 128 µg/mL; in [11], over 128 µg/mL; in assay [7], 128 µg/mL (≈ 436 µM); in [8] it was 128 µg/mL (≈ 436 µM); in [9], 128 µg/mL (≈ 436 µM); in assay [10] it was 32 µg/mL (≈ 109 µM).
`CCCCNC(=O)/C=C/c1ccc(OC)c(OC)c1`: the MIC in assay [1], in assay [2], in [3], in assay [4], in assay [5] and in assay [6] was over 128 µg/mL in each case. Moreover, the MIC in assay [7], in assay [8], in assay [9] and in assay [10] was over 128 µg/mL each time.
For `COc1cc(/C=C/C(=O)N2CCOCC2)cc(OC)c1OC`, the MIC in assay [1] is 128 µg/mL (≈ 416 µM); in assay [2], 128 µg/mL (≈ 416 µM); in [3], over 128 µg/mL; in assay [4], 64 µg/mL (≈ 208 µM); in assay [5], 128 µg/mL (≈ 416 µM); in [6], over 128 µg/mL. Also, the MIC in assay [12] is over 128 µg/mL; in assay [11], over 128 µg/mL; in assay [7] it was 128 µg/mL (≈ 416 µM); in [8], 128 µg/mL (≈ 416 µM); in assay [9], over 128 µg/mL; in assay [10] it was 16 µg/mL (≈ 52.1 µM).
On to `O=C(/C=C/c1ccc(F)cc1)N1CCOCC1`, for which the MIC is 128 µg/mL (≈ 544 µM) in assay [1]; 128 µg/mL (≈ 544 µM) in assay [2]; 128 µg/mL (≈ 544 µM) in assay [3]; over 128 µg/mL in [4]; over 128 µg/mL in assay [5]; over 128 µg/mL in assay [6]. Moreover, the MIC is over 128 µg/mL in assay [12]; over 128 µg/mL in [11]; 128 µg/mL (≈ 544 µM) in [7]; 128 µg/mL (≈ 544 µM) in assay [8]; 128 µg/mL (≈ 544 µM) in assay [9]; over 128 µg/mL in [10].
Regarding `CCN(CC)C(=O)/C=C/c1ccc(OC)c(OC)c1`, the MIC in assay [1] was 128 µg/mL (≈ 486 µM); in assay [2] it was 128 µg/mL (≈ 486 µM); in assay [3], over 128 µg/mL; in assay [4], over 128 µg/mL; in assay [5], over 128 µg/mL; in [6] it was over 128 µg/mL. The MIC in assay [12] was over 128 µg/mL; in assay [11], over 128 µg/mL; in assay [7] it was 128 µg/mL (≈ 486 µM); in assay [8], 128 µg/mL (≈ 486 µM); in assay [9], 128 µg/mL (≈ 486 µM); in assay [10], 64 µg/mL (≈ 243 µM).
Turning to `COc1ccc(/C=C/C(=O)n2c(C)nc3ccccc32)cc1`, the MIC in [1] was 128 µg/mL (≈ 438 µM); in assay [2], 128 µg/mL (≈ 438 µM); in assay [3], 128 µg/mL (≈ 438 µM); in [4], 128 µg/mL (≈ 438 µM); in [5] it was 128 µg/mL (≈ 438 µM); in assay [6], 64 µg/mL (≈ 219 µM). In addition, the MIC in assay [12] is 32 µg/mL (≈ 109 µM); in assay [11], over 128 µg/mL; in assay [7], over 128 µg/mL; in assay [8] it was over 128 µg/mL; in assay [9], over 128 µg/mL; in [10], over 128 µg/mL.
Regarding `COc1ccccc1/C=C/C(=O)N1CCN(C(c2ccccc2)c2ccc(Cl)cc2)CC1` (centres undefined), the MIC in [1], in assay [2], in assay [3], in assay [4], in assay [5] and in assay [6] was over 128 µg/mL in each case. The MIC in [12] was over 128 µg/mL; in assay [11] it was over 128 µg/mL; in [7], over 128 µg/mL; in assay [8], over 128 µg/mL; in assay [9], over 128 µg/mL; in assay [10], 64 µg/mL (≈ 143 µM).
For `O=C(O)/C=C/c1ccccc1` [CINNAMIC ACID], the MIC in [1], in [2], in assay [3], in assay [4], in assay [5] and in assay [6] was over 128 µg/mL in each case. Further, the MIC in [12], in assay [11], in assay [7], in assay [8], in assay [9] and in [10] was over 128 µg/mL throughout.
Consider `CCCCNC(=O)/C=C/c1ccc(C#N)cc1`, for which the MIC in [1], in [2], in assay [3], in assay [4], in assay [5] and in [6] was over 128 µg/mL in each case. In addition, the MIC in assay [7], in [8], in [9] and in assay [10] was over 128 µg/mL each time.
On to `C#CCNC(=O)/C=C/c1ccc(OC)c(OC)c1`, for which the MIC in assay [1], in [2], in [3], in assay [4], in assay [5] and in assay [6] was over 128 µg/mL throughout. The MIC in assay [7], in assay [8], in [9] and in assay [10] was over 128 µg/mL each time.
Consider `O=C(/C=C/c1ccc(Cl)cc1Cl)N1CCN(C(c2ccccc2)c2ccc(Cl)cc2)CC1` (centres undefined), for which the MIC in [1], in assay [2], in assay [3], in assay [4], in assay [5] and in [6] was over 128 µg/mL each time. Besides, the MIC is over 128 µg/mL in assay [12]; over 128 µg/mL in assay [11]; 64 µg/mL (≈ 132 µM) in [7]; over 128 µg/mL in assay [8]; over 128 µg/mL in assay [9]; 64 µg/mL (≈ 132 µM) in [10].
In the case of `COc1ccc(/C=C/C(=O)N(C)C)cc1OC`, the MIC is 128 µg/mL (≈ 544 µM) in [1]; 128 µg/mL (≈ 544 µM) in [2]; 128 µg/mL (≈ 544 µM) in assay [3]; 32 µg/mL (≈ 136 µM) in assay [4]; over 128 µg/mL in assay [5]; 64 µg/mL (≈ 272 µM) in [6]. For the same molecule, the MIC was over 128 µg/mL in assay [12]; over 128 µg/mL in [11]; over 128 µg/mL in assay [7]; 128 µg/mL (≈ 544 µM) in assay [8]; over 128 µg/mL in assay [9]; 8 µg/mL (≈ 34 µM) in assay [10].
Consider `C#CCNC(=O)/C=C/c1ccc([N+](=O)[O-])cc1`, for which the MIC in assay [1], in [2], in [3], in assay [4], in assay [5] and in assay [6] was over 128 µg/mL throughout. Further, the MIC in assay [7], in assay [8], in assay [9] and in assay [10] was over 128 µg/mL in each case.
In the case of `O=C(/C=C/c1ccccc1Cl)N1CCN(C(c2ccccc2)c2ccc(Cl)cc2)CC1` (centres undefined), the MIC in assay [1], in assay [2], in assay [3], in assay [4], in assay [5] and in [6] was over 128 µg/mL in each case. Besides, the MIC in [12] was over 128 µg/mL; in assay [11] it was over 128 µg/mL; in assay [7] it was over 128 µg/mL; in assay [8], over 128 µg/mL; in assay [9], 128 µg/mL (≈ 284 µM); in [10], over 128 µg/mL.
For `COc1ccc(/C=C/C(=O)N2CCOCC2)cc1OC`, the MIC was 128 µg/mL (≈ 462 µM) in assay [1]; 128 µg/mL (≈ 462 µM) in [2]; over 128 µg/mL in assay [3]; over 128 µg/mL in assay [4]; over 128 µg/mL in assay [5]; over 128 µg/mL in assay [6]. Further, the MIC in assay [12] was over 128 µg/mL; in assay [11] it was over 128 µg/mL; in assay [7] it was over 128 µg/mL; in assay [8], 128 µg/mL (≈ 462 µM); in assay [9] it was over 128 µg/mL; in [10], over 128 µg/mL.
Turning to `CCCCNC(=O)/C=C/c1ccc([N+](=O)[O-])cc1`, the MIC in [1], in [2], in assay [3], in assay [4], in [5] and in [6] was over 128 µg/mL in each case. The MIC in assay [7], in assay [8], in assay [9] and in assay [10] was over 128 µg/mL each time.
In the case of `COc1cc(/C=C/C(=O)N(C)C)cc(OC)c1OC`, the MIC is 128 µg/mL (≈ 482 µM) in assay [1]; 128 µg/mL (≈ 482 µM) in assay [2]; 128 µg/mL (≈ 482 µM) in assay [3]; over 128 µg/mL in [4]; over 128 µg/mL in [5]; over 128 µg/mL in assay [6]. The MIC was over 128 µg/mL in assay [12]; over 128 µg/mL in assay [11]; over 128 µg/mL in assay [7]; 128 µg/mL (≈ 482 µM) in [8]; 128 µg/mL (≈ 482 µM) in assay [9]; over 128 µg/mL in assay [10].
`CCCNC(=O)/C=C/c1ccc([N+](=O)[O-])cc1`: the MIC in assay [1], in [2], in [3], in assay [4], in [5] and in [6] was over 128 µg/mL throughout. Besides, the MIC in assay [7], in assay [8], in [9] and in [10] was over 128 µg/mL each time.
